This is an account of results in patent publication US4416877A, “Anti-atherosclerotic pharmaceutical compositions containing diphosphonate compounds” (priority 1979, dated 1983).

The LD50 is the dose at which mortality reaches 50%. Read a high LD50 as lower toxicity.

One series relates to tissue cholesterol. The experiment in a line: Effects in cholesterol fed rats (serum, liver and aorta lipids). The class given is in vivo. The settings on record: cholesterol fed rats (C.F), 200 mg/kg/day; for change in vivo at 200 mg/kg/day: Rattus norvegicus. As for the experimental part:
Effects of diphosphonates of formula (I) in cholesterol fed rats
In order to increase tissue cholesterol, especially liver, rats were fed a high fat-high cholesterol diet for 10 days to 3 months, with the following diet composition: casein 20%, butter 37%, cellulose 9.1%, dextrose 18,9%, cholesterol 4.5%, sodium cholate 1.8%, minerals 7.3%, vitamins 1%, choline 0.4%.
The rats were then fed normal food and were treated for 10 days to 3 months with different compounds (200 mg/kg/day). Serum parameters described above were measured. Liver and aorta lipids were extracted according to J. Folch et al (J. Biochem. 226, 497, 1957). Total lipids were determined by the sulfophosphovanillic reaction (see N. Zolner and K. Kirsch, Z. Ges. exp. Med. 135, 545, 1962) and cholesterol by the Liebermann-Burchard reaction or appropriate enzymatic reaction.
(§1) In above Table IV, results are given as % control values. Except for serum calcium, values which differ from control values by less than 15% are considered as non significant (NS).
Serum free fatty acids, triglycerides and phospholipids were measured in normal rats (N) and rats previously fed a cholesterol diet for 10 days (C.F.)
Serum α/β cholesterol, total lipids and cholesterol of liver and aorta were determined in normal rats (N) and rats which had previously been fed on high cholesterol diet (C.F.)

Another series concerns lipid metabolism. The experiment in a line: Effects of diphosphonates on lipid metabolism in normal rats (serum lipids, α/β cholesterol). The class given is in vivo, male Wistar rats. The settings on record: for change in vivo at 200 mg/kg/day: Rattus norvegicus, po. As for the experimental part: Effects of diphosphonates of formula (I) on lipid metabolism in normal rats Groups of 4 to 5 normal male Wistar rats, weighing about 200 g were treated with diphosphonates (200 mg/kg/day) p.o. for 4 to 21 days. Water soluble compounds were given in solution in 24 mM bicarbonate buffer. Lipid soluble compounds were given in corn oil. The rats were weighed, sacrificed by decapitation (under light ether anesthesia) after overnight fasting. Blood was collected and serum used for analysis. The following blood parameters reflecting changes in lipid metabolism are reported: […]
free fatty acids measured according to W. G. Duncombe (Clin. Acta 9, 122, 1964) triglycerides enzymatic method (Boehringer Mannheim Kit 126 012) phospholipids: molybdate/vanadate reaction (Boehringer Mannheim Kit 124 974) β-lipoprotein cholesterol was measured after heparin, CaCl2 precipitation according to M. Burstein et al. (La Presse Medicale 43, 974, 1958) and to D. Watson (Clin. Chim. Acta 5, 637, 1960).
as §1
Serum free fatty acids, triglycerides and phospholipids were measured in normal rats (N) and rats previously fed a cholesterol diet for 10 days (C.F.) Serum α/β cholesterol, total lipids and cholesterol of liver and aorta were determined in normal rats (N) and rats which had previously been fed on high cholesterol diet (C.F.)

The next series has as its system serum calcium. The series can be described thus: Effects of acid and salt form of diphosphonates in hypercalceamic rats. Type of series: in vivo, male Wistar rats. As for the experimental part:
Effects of acid and salt form of diphosphonates of formula (I) in hypercalceamic rats
To verify this activity the acid form of compound 4 and is monosodium salt counterpart (compound 10) were also tested by using a protol similar to the one described by Potokar (see above). Briefly, groups of 4 male Wistar rats received acid or salt form of compound 4 as 0.05% solution in drinking water corresponding to about 50 mg/kg/day. The rats were treated with the compounds for 15 days.
Serum calcium was measured in hypercalceamic rats.

In the next series the test system is HDL cholesterol. The settings on record: rats; Day et al., Muller and Cortesi; cited from earlier work.
Series [1] relates to alpha/beta cholesterol ratio. The experiment in a line: Comparison of clofibrate, gemfibrozil and fenofibrate to compound 16: alpha/beta cholesterol ratio in normal Wistar rats. Type of series: in vivo. The settings on record: 100 mg/kg for 10 days, n = 5. As for the experimental part:
It should be noted that these diphosphonate compounds are different and novel in comparison to the classical hypolipidemic compounds as illustrated in Table V. The diphosphonate ester used for comparison was the only one to increase the alpha/beta cholesterol ratio in control rats.
Each drug was administered at 100 mg/kg for 10 days

Another series is described as follows: Oral LD50 toxicity. Type of series: in vivo. The settings on record: in vivo; oral. The source says: Following the extensive pharmacological screening of these compounds, using over 2000 animals, those showing the most potential were then subjected to toxicity testing for further selection relative to their activity/toxicity risk profiles
By way of LD50 (Lethal Dose 50) the methyl diphosphonates were discovered to have a significant lower degree of toxicity. […] This represents a significant six fold difference in toxicity.

The test system of series [2] is aorta and kidney calcification. The settings on record: hypercalceamic animal model; cited from earlier work.
Setting [3] is: read-out: Liver Chol. (% control values).
Where [4] appears, read: normal rats (N), 200 mg/kg/day p.o., read-out: Serum Chol. α/β (% control values).
Where [5] appears, read: normal rats (N), 200 mg/kg/day p.o., read-out: Serum Phospholipids (% control values).
[6] abbreviates: normal rats (N), 200 mg/kg/day p.o., 200 mg/kg/day.
[7] abbreviates: normal rats (N), 200 mg/kg/day p.o., read-out: Serum Triglycerides (% control values).

Where two headings read alike, the source gives them in different places. Where only a bound is given, the exact number is not on record here.

Consider `O=P(O)(O)C(O)(c1ccc(Cl)cc1)P(=O)(O)O` [4 Acid, hydroxy (p-chlorophenyl) methylenediphosphonic acid], for which the change in vivo at 200 mg/kg/day in the series with tissue cholesterol (setting [3]) is less than 15%. Further, the change in vivo at 200 mg/kg/day with tissue cholesterol (read-out: Liver Total Lipids (% control values)) is less than 15%. In the series with tissue cholesterol, the “Aorta Chol. (% control values)” value is “NS (Except for serum calcium, values which differ from control values by less than 15% are considered as non significant (NS))” and the “Aorta Total Lipids (% control values)” value was “NS (Except for serum calcium, values which differ from control values by less than 15% are considered as non significant (NS))”. Moreover, the change in vivo at 200 mg/kg/day in the series with lipid metabolism (setting [4]) is less than 15%. The change in vivo at 200 mg/kg/day with lipid metabolism (setting [5]) is less than 15%. Moreover, in the series with lipid metabolism (setting [6]), the “Serum Free Fatty Acids (% control values)” value is -17% and the “Serum Triglycerides (% control values)” value is recorded as -29%. In the series on lipid metabolism (rats), the “decreases in serum triglycerides” value is recorded as “Significant decreases” and the “property to change lipid metabolism / increase HDL” value is “do not have these properties”. In the series on serum calcium (15% NS limit does not apply), the “Serum Calcium (% control values)” value is given as -20%. The “decrease of serum calcium” value in the series on serum calcium (about 50 mg/kg/day in drinking water, 15 days, listed as acid form of compound 4) is listed as 20%.
Take `CCOC(=O)C(C)(C)Oc1ccc(Cl)cc1` [Clofibrate, reference compound]: the “HDL cholesterol” value with HDL cholesterol is reported as “decreases HDL cholesterol”. For the same compound, in series [1], the “alpha/beta Cholesterol Ratio” value was 2.76 ± 0.40. Moreover, the change in vivo at 200 mg/kg/day in the series on tissue cholesterol (setting [3]) was less than 15%; in the series on lipid metabolism (setting [4]), less than 15%; with lipid metabolism (normal rats (N), 200 mg/kg/day p.o., read-out: Serum Free Fatty Acids (% control values)), less than 15%; in the series with lipid metabolism (setting [5]) it was -34%; in the series on lipid metabolism (setting [7]), 19%. Moreover, the “decrease of plasma phospholipids” value in the series with lipid metabolism (rats, comparison) is listed as 33.6%. In addition, in the series on lipid metabolism (rats, comparison), the “decrease of α/β ratio” value is recorded as 52.2%.
For the compound `CCOP(=O)(OCC)OC(c1ccc(Cl)cc1)P(=O)(OCC)OCC` (centres unmarked) [Compound 24], in “Oral LD50 toxicity”, the LD50 was found to be 547 mg/kg. Also, the change in vivo at 200 mg/kg/day in the series with lipid metabolism (setting [4]), in the series with lipid metabolism (setting [5]) and in the series on lipid metabolism (setting [7]) was less than 15% throughout.
In the case of `CC(C)OC(=O)C(C)(C)Oc1ccc(C(=O)c2ccc(Cl)cc2)cc1` [Fenofibrate], the “alpha/beta Cholesterol Ratio” value in series [1] is 1.19 ± 0.20.
On to `Cc1ccc(C)c(OCCCC(C)(C)C(=O)O)c1` [Gemfibrozil], for which the “alpha/beta Cholesterol Ratio” value in series [1] turned out to be 5.33 ± 0.31.
On to `O=P(O)(O)C(Cl)(Cl)P(=O)(O)O` [dichloromethylene diphosphonate], for which, in series [2], the “aorta and kidney calcification” value was “inhibit aorta and kidney calcification”; the “vitamin D-induced rise in plasma calcium” value was “prevent the vitamin D-induced rise in plasma calcium”.
